This note sets out measurements from ChEMBL document CHEMBL5143511, “Positioning of an unprecedented 1,5-oxaza spiroquinone scaffold into SMYD2 inhibitors in epigenetic space” (Eur J Med Chem, 2022).

Molecules are shown by their SMILES.

The term IC50 denotes the concentration that gives 50% inhibition. What is called ED50 is the dose at which the effect has come halfway, by size or by number of responders. The term Tmax denotes the time at which the peak concentration occurs. By AUC(0-inf) is commonly meant total exposure, with the tail of the curve extrapolated. Read a high AUC(0-inf) as more exposure. The Cmax is the highest concentration seen after dosing. A word on the AUC(0-t): it is exposure summed from dosing to a finite time, without extrapolation to infinity. A high value points to more exposure.

The test system of one data set is MDA-MB-231. The data set can be described thus: Antiproliferative activity against human MDA-MB-231 cells assessed as inhibition of cell growth incubated for 72 hrs by CellTiter-Glo luminescent cell viability assay. The data set is classed as functional, cell-based. The note with it: MDA-MB-231, 72 h. For orientation: Cellular ATP, detected with luciferase, serves as a proxy for viable cell number.

The test system of data set [1] is HEK293. The data set can be described thus: Induction of apoptosis in HEK293 cells assessed as increase in cleaved PARP level at 0.0195 to 10 uM incubated for 24 hrs by immunoblot analysis. The class given is toxicity, cell-based. As to conditions: human, hek293, 24 h, dose 0.0195-10 µM.
The nature of data set [2]: Drug metabolism in liver microsomes (unknown origin) assessed as M-254 metabolite formation by LC-MS/MS analysis. The data set is classed as ADME, Microsome. A general note: Liver microsomes are a subcellular fraction often used to study metabolism.
Data set [3] concerns MDA-MB-453. The data set can be described thus: Antitumor activity against human MDA-MB-453 cells xenografted in BALB/c nude mouse assessed as reduction in tumor volume at 40 mg/kg, ip measured every 3 days for 8 days by caliper method (reference value: 152+/- 11 mm3). The data set is classed as functional. The note with it: time 8 day. (In general: A xenograft is tissue or cells of one species grown in another, often human tumour cells in immunodeficient mice.)

Data set [4] has as its system MDA-MB-453. In words: Antitumor activity against human MDA-MB-453 cells xenografted in BALB/c nude mouse assessed as reduction in tumor volume at 40 mg/kg, ip measured every 3 days for 11 days by caliper method (reference value: 168 +/- 16 mm3). The class given is functional. The note with it: time 11 day.
For data set [5], the system named is MDA-MB-453. In words: Antitumor activity against human MDA-MB-453 cells xenografted in BALB/c nude mouse assessed as reduction in tumor weight at 40 mg/kg, ip measured after 15 days (reference value: 0.038 +/- 0.02 g). The data set is classed as functional. The note with it: time 15 day.
The next data set has as its system Ca-Ski. The data set can be described thus: cells. The data set is classed as functional, cell-based. As to conditions: Homo sapiens, 72 h.
The nature of data set [6]: Drug metabolism in liver microsomes (unknown origin) assessed as M-56 metabolite formation by LC-MS/MS analysis. The data set is classed as ADME, Microsome.
For data set [7], the system named is HEK293. In words: Induction of apoptosis in HEK293 cells assessed as increase in cleaved PARP level incubated for 24 hrs by immunoblot analysis. As to conditions: human, hek293, 24 h, DDE = dose-dependent effect, dose 0.0195-10 µM. The class given is toxicity, cell-based.
In data set [8] the test system is MDA-MB-453. In words: Antitumor activity against human MDA-MB-453 cells xenografted in ip dosed BALB/c nude mouse assessed as reduction in tumor growth measured after 15 days. The note with it: MDA-MB-453, 360 h, time 15 day. The data set is classed as functional.
Data set [9] relates to MDA-MB-453. In words: cells. The class given is functional, cell-based. The note with it: Homo sapiens, MDA-MB-453, 72 h.
Description: Antiproliferative activity against human MDA-MB-453 cells assessed as inhibition of cell growth incubated for 72 hrs by CellTiter-Glo luminescent cell viability assay
Data set [10] relates to MDA-MB-453. The data set can be described thus: Antitumor activity against human MDA-MB-453 cells xenografted in BALB/c nude mouse assessed as tumor growth inhibition rate at 40 mg/kg, ip measured after 15 days relative to control. The class given is functional. The note with it: MDA-MB-453, 360 h, time 15 day, read-out: TGI.
The target in data set [11] is N-lysine methyltransferase SMYD2 (Homo sapiens, UniProt Q9NRG4). In words: Inhibition of SMYD2 (unknown origin) using 3H-SAM as substrate incubated for 1 hr by filter binding method.
The test system of data set [12] is MDA-MB-453. The data set can be described thus: Antitumor activity against human MDA-MB-453 cells xenografted in BALB/c nude mouse assessed as reduction in tumor volume at 40 mg/kg, ip measured on day 4 by caliper method (reference value: 145 +/- 11 mm3). As to conditions: time 4 day. The class given is functional.
The nature of data set [13]: Drug metabolism in liver microsomes (unknown origin) assessed as M-78 metabolite formation by LC-MS/MS analysis. The data set is classed as ADME, Microsome.
Data set [14] has as its system MDA-MB-453. The data set can be described thus: Antitumor activity against human MDA-MB-453 cells xenografted in BALB/c nude mouse assessed as reduction in tumor volume at 40 mg/kg, ip measured on day 1 by caliper method (reference value: 137 +/- 10 mm3). The class given is functional. As to conditions: time 1 day.
Data set [15] can be described thus: Tmax in ICR mouse at 40 mg/kg, ip administered as vehicle 2 as corn oil suspension measured upto 1440 mins by LC-MS/MS analysis. The class given is ADME, organism-based. As to conditions: in vivo.
Data set [16] in a line: AUCinfinity in ICR mouse at 40 mg/kg, ip administered as vehicle 1 as DMSO/Cremophor EL/ PEG400/ DDW formulation measured upto 1440 mins by LC-MS/MS analysis. The data set is classed as ADME, organism-based. On the set-up: dose 40 mg/kg, time < 1440 min, route ip. As to conditions: in vivo.
The nature of data set [17]: Cmax in ICR mouse at 40 mg/kg, ip administered as vehicle 1 as DMSO/Cremophor EL/ PEG400/ DDW formulation measured upto 1440 mins by LC-MS/MS analysis. The data set is classed as ADME, organism-based. More on the design: dose 40 mg/kg, time < 1440 min, route ip. The note with it: in vivo.
Data set [18] is described as follows: AUClast in ICR mouse at 40 mg/kg, ip administered as vehicle 2 as corn oil suspension measured upto 1440 mins by LC-MS/MS analysis. The class given is ADME, organism-based. On the set-up: dose 40 mg/kg, time < 1440 min, route ip. As to conditions: in vivo.
A short description of data set [19]: Tmax in ICR mouse at 40 mg/kg, ip administered as vehicle 1 as DMSO/Cremophor EL/ PEG400/ DDW formulation measured upto 1440 mins by LC-MS/MS analysis. The data set is classed as ADME, organism-based. The note with it: in vivo.
Data set [20] is described as follows: AUClast in ICR mouse at 40 mg/kg, ip administered as vehicle 1 as DMSO/Cremophor EL/ PEG400/ DDW formulation measured upto 1440 mins by LC-MS/MS analysis. The data set is classed as ADME, organism-based. On the set-up: time < 1440 min, dose 40 mg/kg, route ip. The note with it: in vivo.
The test system of data set [21] is MDA-MB-453. In words: Antitumor activity against human MDA-MB-453 cells xenografted in BALB/c nude mouse assessed as reduction in tumor volume at 40 mg/kg, ip measured every 3 days for 15 days by caliper method (reference value: 177 +/- 19 mm3). The data set is classed as functional. As to conditions: time 15 day.
Data set [22] can be described thus: Toxicity in […] xenografted with human MDA-MB-453 cells assessed as body weight loss at 40 mg/kg, ip administered as DMSO/Cremophor EL/ PEG400/ DDW formulation and measured after 4 days. The data set is classed as organism-based. As to conditions: in vivo, 96 h, time 4 day.
Data set [23] in a line: Drug concentration in ICR mouse plasma at 40 mg/kg, ip administered as vehicle 2 as corn oil suspension measured upto 1440 mins by HPLC analysis. The class given is ADME, organism-based.
A short description of data set [24]: AUCinfinity in ICR mouse at 40 mg/kg, ip administered as vehicle 2 as corn oil suspension measured upto 1440 mins by LC-MS/MS analysis. On the set-up: time < 1440 min, dose 40 mg/kg, route ip. The data set is classed as ADME, organism-based. The note with it: in vivo.
Data set [25] in a line: Drug uptake in ICR mouse plasma assessed as time required to reach higher drug level at 40 mg/kg, ip administered as vehicle 1 as DMSO/Cremophor EL/ PEG400/ DDW formulation measured upto 1440 mins by HPLC analysis. The data set is classed as ADME, organism-based.
Data set [26] in a line: Terminal half life in ICR mouse at 40 mg/kg, ip administered as vehicle 1 as DMSO/Cremophor EL/ PEG400/ DDW formulation measured upto 1440 mins by LC-MS/MS analysis. The class given is ADME, organism-based. The note with it: in vivo, read-out: beta t1/2.
Data set [27] is described as follows: Drug metabolism in liver microsomes (unknown origin) assessed as M-115 metabolite formation by LC-MS/MS analysis. The class given is ADME, Microsome.
Data set [28] can be described thus: Terminal half life in ICR mouse at 40 mg/kg, ip administered as vehicle 2 as corn oil suspension measured upto 1440 mins by LC-MS/MS analysis. The class given is ADME, organism-based. As to conditions: in vivo, read-out: beta t1/2.
Data set [29] is described as follows: Drug metabolism in liver microsomes (unknown origin) assessed as M+18 metabolite formation by LC-MS/MS analysis. The data set is classed as ADME, Microsome.
Data set [30] is described as follows: Metabolic stability in mouse liver microsomes assessed as parent compound remaining at 5 uM preincubated for 5 mins with NADPH followed by compound addition and measured after 15 mins by LC-MS/MS analysis. The class given is ADME, Microsome. The note with it: read-out: Stability.
A short description of data set [31]: Cmax in ICR mouse at 40 mg/kg, ip administered as vehicle 2 as corn oil suspension measured upto 1440 mins by LC-MS/MS analysis. More on the design: time < 1440 min, dose 40 mg/kg, route ip. The note with it: in vivo. The class given is ADME, organism-based.
Data set [32] concerns the target Glycogen synthase kinase-3 beta (Homo sapiens, UniProt P49841). The data set can be described thus: Inhibition of GSK3beta (unknown origin).

Sequence of N-lysine methyltransferase SMYD2 (Q9NRG4 whole entry): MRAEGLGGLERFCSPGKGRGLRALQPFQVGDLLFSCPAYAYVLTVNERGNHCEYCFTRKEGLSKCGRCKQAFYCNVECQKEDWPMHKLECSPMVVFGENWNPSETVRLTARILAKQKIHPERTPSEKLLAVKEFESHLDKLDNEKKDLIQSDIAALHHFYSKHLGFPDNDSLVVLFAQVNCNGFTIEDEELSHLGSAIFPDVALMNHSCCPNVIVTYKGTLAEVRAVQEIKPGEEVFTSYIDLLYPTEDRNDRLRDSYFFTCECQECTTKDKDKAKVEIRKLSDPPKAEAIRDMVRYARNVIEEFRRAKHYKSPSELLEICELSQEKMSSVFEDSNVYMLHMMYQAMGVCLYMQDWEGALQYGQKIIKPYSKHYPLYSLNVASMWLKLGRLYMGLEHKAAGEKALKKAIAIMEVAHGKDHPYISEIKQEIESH
Sequence of Glycogen synthase kinase-3 beta (P49841 whole entry): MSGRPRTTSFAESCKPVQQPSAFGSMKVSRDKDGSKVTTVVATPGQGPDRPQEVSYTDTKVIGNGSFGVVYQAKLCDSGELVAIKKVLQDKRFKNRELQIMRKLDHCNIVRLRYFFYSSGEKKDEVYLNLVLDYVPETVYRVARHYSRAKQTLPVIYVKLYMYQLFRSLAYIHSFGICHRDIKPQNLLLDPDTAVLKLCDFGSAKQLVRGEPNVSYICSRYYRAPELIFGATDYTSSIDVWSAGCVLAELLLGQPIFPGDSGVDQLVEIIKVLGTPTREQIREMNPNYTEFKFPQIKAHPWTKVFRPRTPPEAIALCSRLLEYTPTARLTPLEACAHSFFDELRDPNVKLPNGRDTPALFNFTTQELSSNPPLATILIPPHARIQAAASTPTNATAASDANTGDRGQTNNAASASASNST
Description for Ca-Ski: Antiproliferative activity against human Ca-Ski cells assessed as inhibition of cell growth incubated for 72 hrs by CellTiter-Glo luminescent cell viability assay

Regarding `O=C1COc2c(CCNCCN(C(=O)CCNCCc3ccc(Cl)c(Cl)c3)C3CCCCC3)ccc(O)c2N1`, in the data set on MDA-MB-231, the IC50 is 13100 nM. For the same compound, in the data set with HEK293 [1], the Activity result was “Non-Toxic”.
For the compound `CN1C(=O)C(CCO[Si](c2ccccc2)(c2ccccc2)C(C)(C)C)COC12C=CC(=O)C=C2` (stereo unspecified), the Drug metabolism result in data set [2], in data set [6], in [13], in [27] and in [29] was “Metabolite_Detected” in each case. The Activity in the data set on MDA-MB-453 [3] is on record as 105 mm3; in the data set on MDA-MB-453 [4], 87 mm3; in the data set on MDA-MB-453 [5], 0.009 g; in the data set on HEK293 [7], “Dde”; in the data set with MDA-MB-453 [12], 126 mm3; with MDA-MB-453 [14], 136 mm3. The Activity with MDA-MB-453 [21] was 67 mm3; in data set [22], “Toxic”. Moreover, the IC50 stood at 180 nM in the data set with Ca-Ski, 11.9 nM with MDA-MB-453 [9], 679 nM in [11] and 85.4 nM in the data set on MDA-MB-231. The ED50 with MDA-MB-453 [8] was below 40 mg/kg. In addition, the inhibition in vivo at 40 mg/kg in the data set with MDA-MB-453 [10] turned out to be 77.7%. Also, the Tmax in [15] is 1.17 h; in data set [19], 0.25 h; in [25] it was 8 h. The AUC(0-inf) in data set [16] is 6050 ng·h/mL; in data set [24], 3130 ng·h/mL. For the same compound, the Cmax in data set [17] was 1400 ng/mL; in data set [31] it was 301 ng/mL. The AUC(0-t) at 24 h was 1560 ng·h/mL in [18] and 5810 ng·h/mL in data set [20]. In data set [23], this compound yielded a concentration at 24 h of 279 ng/mL. Moreover, the half-life is 4.83 h in data set [26] and 15.9 h in data set [28]. In [30], the remaining at 0.25 h, 5 µM is 1.22%.
On to `O=C1C=CC2(C=C1)OCC(Cc1cn(-c3cccc(Cc4ccccc4)c3)nn1)C(=O)N2c1ccccc1` (stereo unspecified), for which the IC50 in data set [11] came to 3060 nM; in data set [32], 1530 nM.
